± gives the expanded uncertainty stated by the source.
Test: xn = mol fraction of the nth substance listed
Conditions: 308.15 K, Liquid

CCCCCCCl [1-chlorohexane] + CCCCCCCC
mass density [kg/m3]
Conditions	x2 = 0	x2 = 0.1016	x2 = 0.1996	x2 = 0.3153	x2 = 0.3948	x2 = 0.4862	x2 = 0.5938	x2 = 0.6966	x2 = 0.794	x2 = 0.9001
20370 kPa	–	–	–	–	804.79 ± 1.1	788.69 ± 1.1	770.37 ± 1.2	753.6 ± 1.3	738.13 ± 1.4	721.86 ± 1.4
22390 kPa	882.35 ± 0.76	861.81 ± 0.85	842.63 ± 0.94	820.79 ± 1	806.33 ± 1.1	790.24 ± 1.2	771.9 ± 1.3	755.13 ± 1.4	739.65 ± 1.4	723.39 ± 1.5
24420 kPa	883.86 ± 0.79	863.33 ± 0.89	844.15 ± 0.98	822.3 ± 1.1	807.85 ± 1.2	791.75 ± 1.2	773.44 ± 1.3	756.65 ± 1.4	741.13 ± 1.5	724.85 ± 1.6
26450 kPa	885.35 ± 0.81	864.85 ± 0.92	845.66 ± 1	823.79 ± 1.1	809.33 ± 1.2	793.23 ± 1.3	774.9 ± 1.4	758.1 ± 1.5	742.61 ± 1.6	726.31 ± 1.7
28470 kPa	886.84 ± 0.84	866.32 ± 0.95	847.13 ± 1.1	825.28 ± 1.2	810.81 ± 1.3	794.7 ± 1.4	776.37 ± 1.5	759.57 ± 1.6	744.06 ± 1.7	727.75 ± 1.8
29490 kPa	887.56 ± 0.85	867.04 ± 0.97	847.84 ± 1.1	825.98 ± 1.2	811.52 ± 1.3	795.4 ± 1.4	777.07 ± 1.5	760.27 ± 1.6	744.75 ± 1.7	728.43 ± 1.8
30500 kPa	888.21 ± 0.86	867.77 ± 0.98	848.57 ± 1.1	826.72 ± 1.2	812.26 ± 1.3	796.13 ± 1.4	777.79 ± 1.5	760.96 ± 1.6	745.47 ± 1.7	729.14 ± 1.8
32530 kPa	889.73 ± 0.89	869.2 ± 1	850.02 ± 1.1	828.15 ± 1.3	813.68 ± 1.4	797.54 ± 1.5	779.17 ± 1.6	762.38 ± 1.7	746.85 ± 1.8	730.54 ± 1.9
34550 kPa	891.14 ± 0.91	870.61 ± 1	851.41 ± 1.2	829.56 ± 1.3	815.08 ± 1.4	798.95 ± 1.5	780.59 ± 1.6	763.77 ± 1.8	748.23 ± 1.9	731.86 ± 2
36580 kPa	892.52 ± 0.93	872.01 ± 1.1	852.79 ± 1.2	830.94 ± 1.4	816.46 ± 1.5	800.32 ± 1.6	781.95 ± 1.7	765.13 ± 1.8	749.58 ± 1.9	733.19 ± 2
38600 kPa	893.9 ± 0.96	873.39 ± 1.1	854.16 ± 1.2	832.28 ± 1.4	817.83 ± 1.5	801.66 ± 1.6	783.3 ± 1.8	766.43 ± 1.9	750.88 ± 2	734.53 ± 2.1
39620 kPa	894.55 ± 0.97	874.04 ± 1.1	854.82 ± 1.3	832.94 ± 1.4	818.49 ± 1.5	802.33 ± 1.7	783.95 ± 1.8	767.08 ± 1.9	751.54 ± 2	–
